What was measured:
[1] = tested on: MDA-MB-231 cells; test: Migration towards 0.5% serum, chemotaxis chamber; format: cell-based, human; conditions: indicated doses of cisplatin + 100 nM MitoQ
Protocol: (§1) Previous to migration and invasion assays, cells were pretreated with the indicated amounts of drugs for 16 h, and left to recover for 6 h in full culture medium. Migration assays were performed in a NeuroProbe® standard 48-well chemotaxis chamber according to manufacturer's instructions. Briefly, the bottom chamber was filled with DMEM containing 0.5% serum as a chemo-attractant. Fifty thousand cells were seeded in the upper chamber in the same medium but without serum ±MitoQ where indicated, and allowed to migrate overnight through an 8-μm pore-size polycarbonate membrane. A similar stimulation protocol was used for invasion assays, with the difference of using Matrigel-coated transwells (Corning®). With MCF7 cells, membranes were previously incubated for 30 min with a solution of Vitronectin 10 μg/ml (Sigma-Aldrich®, #SRP3186). Migrated/invaded cells were fixed and stained with 100 μl of a 0.23% crystal violet solution (Sigma-Aldrich®, #C0775) for 10 min before counting on a SpectraMax™ i3 spectrophotometer equipped with a MiniMax imaging cytometer, using the SoftMax Pro software. Data were normalized to vehicle-treated cells (control).

[2] = tested on: MCF7 cells; test: Migration towards 0.5% serum, chemotaxis chamber; format: cell-based, human; conditions: 0.1 μg/mL DXR + 100 nM MitoQ
Protocol: as §1

[3] = tested on: primary breast tumors of MMTV-PyMT mice; test: RT-qPCR of primary breast tumors; format: in vivo; conditions: FEC + MitoQ 18 mg/kg daily oral; mouse transcripts; P<0.01; read-out: fold induction of SLC7A11, SERPINE1 and TXNRD1 (each independently)
Protocol: Total mRNA from MDA-MB-231, SkBr3 and MDA-MB-436 cells treated ±MitoQ for 48 h was extracted using the NucleoSpin RNA Kit (Macherey-Nagel®). Total mRNA from primary tumors was extracted with Tri reagent (Molecular Research Center®, Cat #TR118). mRNAs were quantified by the Qubit BR dsRNA assay kit (Thermo Fisher Scientific®), and mRNA integrity was evaluated on an Agilent® 2100 Bioanalyzer with the RNA 6000 nano kit (Agilent®). It was reverse transcribed in complementary DNA using the High-Capacity cDNA Reverse Transcription Kit (Applied Biosystems®, cat #4368814) according to manufacturer's protocol. Complementary DNA (500 ng) was amplified by real time quantitative PCR (RT-qPCR) using the low ROX SYBR Master Mix dTTP Blue (Eurogentec®) and primers listed in Table 5 and Table 6 on a ViiA 7 Real-Time PCR System (Thermo Fisher Scientific®). Gene expression was normalized to β-actin gene expression.
Female FVB/N-Tg(MMTV-PyMT)634Mul/J (MMTV-PyMT) mice that express the polyomavirus middle T antigen spontaneously develop orthotropic multifocal breast adenocarcinomas that spontaneously disseminate metastases to the lungs during mouse lifetime. […] They were sacrificed at 16 weeks-old, and the lungs insufflated with Indian ink for metastasis quantification as described above. […]

[4] = tested on: 4T1 cells; test: Migration towards 0.5% serum, chemotaxis chamber; format: cell-based, mouse
Protocol: as §1

[5] = tested on: MDA-MB-231 cells; test: Glucose consumption and lactate production, enzymatic assays on CMA600; format: cell-based, human; conditions: 48 h
Protocol: (§2) Glucose and lactate concentrations were measured in cell supernatants collected after 48 h of culture ±MitoQ, using specific enzymatic assays on a CMA600 analyzer (Aurora Borealis®), as previously described in Sonveaux et al. (J Clin Invest; 2008; 118, 3930-3942). All data were normalized by total protein content (Bio-Rad® Protein Assay).

[6] = tested on: SkBr3 cells; test: as above; format: cell-based, human; conditions: indicated doses of MitoQ, 48 h
Protocol: as §2

[7] = tested on: MDA-MB-436 breast cancer cells; test: Mitochondrial potential, JC-10; format: cell-based, human; conditions: MitoQ 100 nM, 48 h
Protocol: The mitochondrial potential (ΔΨ) was measured using JC-10 Mitochondrial Membrane Potential Assay Kit (Abcam®, #ab112134), according to manufacturer's recommendations. Briefly, MDA-MB-231 (10^4 cells/well), SkBr3 (10^4 cells/well), MDA-MB-436 (10^4 cells/well) or MCF10A (10^5 cells/well) cells were seeded in 96-well plates and treated for 48 h±MitoQ. Cells were then washed twice and incubated with JC-10 (1× solution) for 45 min. Fluorescence intensities were measured at 490/525 nm and […] using a SpectraMax i3 spectrophotometer equipped with a MiniMax imaging cytometer (Molecular Devices®).

COC1=C(OC)C(=O)C(CCCCCCCCCC[P+](c2ccccc2)(c2ccccc2)c2ccccc2)=C(C)C1=O [MitoQ]
breast cancer cell migration in the presence of cisplatin [1]: repressed | DXR-stimulated cell migration [2]: inhibited | fold induction at 18 mg/kg [3]: ≥ 2 | DXR-stimulated cell migration ([4]; 0.1 μg/mL DXR + 100 nM MitoQ): inhibited | breast cancer cell migration in the presence of cisplatin ([4]; indicated doses of cisplatin + 100 nM MitoQ): repressed | glycolytic rate (glucose consumption, lactate production) ([5]; MitoQ 100 nM): increasing | glycolytic compensation with increasing dose ([5]; indicated doses of MitoQ): saturated | glycolytic compensation with increasing dose [6]: saturated | AT (FIG. 14D, mitochondrial potential) [7]: repressed

Reference: US20250270648A1, “MOLECULAR SIGNATURE FOR ASSESSING THE RESPONSIVENESS OF CANCER TO MITOCHONDRIA-TARGETED ANTIOXIDANTS” (UNIVERSITÉ CATHOLIQUE DE LOUVAIN, priority 2021, published 2025)
